Laboratory results from paper PMC12596500, “Affinity-selected peptide ligands specifically bind i-motif DNA and modulate c-Myc gene expression” (Nucleic Acids Research, 2025).

Columns and labels:
[1] = target: short c-Myc iM-forming sequence; settings: cited from earlier work
Procedure: To support the experiments on the stabilizing properties of the peptides, we also performed direct binding measurements of Pep-VSE and Pep-PTN using UV titrations. Binding curves are provided in Supplementary Fig. S11, and Kds are in Table 2. These experiments reveal tight binding of both PTN (0.93 ± 0.08 µM) and VSE (0.43 ± 0.03 µM) compared to other DNA structures. Although binding was detected for both peptides against c-MycG52, the G4-forming sequence in the complementary strand, there was no plateau at the concentrations examined. So, we have estimated a lower limit of 50 µM as the potent ...

c-MycC52 iM = assay: Fluorescent indicator displacement (FID) assay with Thiazole Orange; format: binding; settings: 1 µM c-MycC52, 2 µM TO, 10 mM sodium cacodylate pH 6.6, peptides 25-200 µM, n = 3
Procedure: Fluorescent indicator displacement (FID) experiments used in this publication are based on the first FID assay developed for iM DNA [35]. The FID experiments were performed on a BMG CLARIOstar plate reader using 96-well, solid black flat-bottom plates. Thiazole Orange (TO) was the indicator, and the stock solution was prepared at 10 mM in DMSO. The TO stock was diluted into the appropriate buffer to 2 µM. Each well received 9 µl of the 2 µM TO solution, was excited at 430 nm, and fluorescence emission at 450 nm was measured; this was normalized to 0% to account for background fluorescence. One microlitre of […] DNA was added to each well and shaken in the plate reader for 30 s using double orbital shaking at 700 rpm and left for 10 min to equilibrate. Following equilibration, fluorescence emission was measured and normalized to 100% representing maximum fluorescence. Peptides were titrated starting at 25 µM, with 0.9 µl additions into each well in triplicate, until a final concentration of 200 µM was reached, and fluorescence emission was measured after each addition. Fluorescence emission for each well was normalized between 0% and 100%, which was taken away from 100 to give the percentage of displacement. The data were analyzed in Origin data analysis software and fitted with a hyperbolic dose–response curve from which the DC50 value was interpolated.
The relative binding of the five peptide ligands to the folded c-MycC52 iM was assessed via a FID assay using TO (Fig. 1). These experiments were performed in 10 mM sodium cacodylate at pH 6.6, the transitional pH of the c-Myc iM-forming sequence. As iM-formation is reduced at higher pH and higher ionic strength, additional stabilizing cations were avoided to allow the highest proportion of iM formation at the highest pH, to represent as close to physiological pH conditions as possible.
Figure 1. Concentration-dependent interaction of peptides with c-MycC52 iM determined via FID assay. The assay was performed with 1 µM c-MycC52 in 10 mM sodium cacodylate, pH 6.6, in the presence of 2 µM TO. Peptide ligands were added in increments of 25 µM up to a final concentration of 200 µM. Data are presented as mean ± SD (n = 3) and fitted using a Hill-Slope dose–response curve.

dsDNA (DS) = assay: CD melting of double-stranded DNA; format: binding; settings: 10 µM DS, 10 mM NaCaco pH 6.6, 10 molar eqv. peptide vs buffer; n=2
Procedure: Circular Dichroism (CD) melting experiments were performed in a Jasco J-1500 spectropolarimeter with 10 µM DNA samples in 10 mM sodium cacodylate buffer at pH 6.6 using a 1 mm path length quartz cuvette. […] The samples were kept at 5°C for 5 min before starting the melt, with a temperature increase of 1°C/min, a 0.5°C data interval, and a 60-s holding time at each target temperature. Four scans were accumulated data pitch of 0.5 nm, a scanning speed of 200 nm/min, 1 s response time, 2 nm bandwidth, and 200 mdeg sensitivity. Furthermore, two CD melting experiment repeats were performed recording C-rich c-Myc at 288 and 320 nm, G-rich c-Myc at 264 and 320 nm, and dsDNA at 253 and 320 nm with the settings as described for full spectrum measurements. Data were zero corrected to 320 nm and baseline drift. The melting temperature (TM) was concluded using the Boltzmann or biphasic fitting curve on the folded fraction data using GraphPad Prism version 10.1.2. Data were processed as mean ± SEM (n = 4) and one-way ANOVA followed by Bonferroni post-hoc test to determine significant changes between peptides and controls.

Row | Compound | Kd [1] [µM] | relative binding affinity ranking (TO displacement) (c-MycC52 iM) | destabilization of dsDNA (decrease in TM) (dsDNA (DS)) [°C]
1 | NC[C@H]1O[C@H](O[C@H]2[C@H](O)[C@@H](O[C@H]3O[C@H](CO)[C@@H](O)[C@H](N)[C@H]3O)[C@H](N)C[C@@H]2N)[C@H](N)C[C@@H]1O [tobramycin] | 13 |  | 
2 | EIEY TDHMK ELG [Pep-EIE, linear 12-mer peptide selected by phage display against c-MycC52; N-terminal acetylation, C-terminal amidation] |  | SLC > PTN > VSE > EIE > RVS | 
3 | RVS TDHMK GRGG [Pep-RVS, linear 12-mer peptide selected by phage display against c-MycC52; N-terminal acetylation, C-terminal amidation] |  | SLC > PTN > VSE > EIE > RVS | 
4 | SLCDIIRIEKVR [Pep-SLC, linear 12-mer peptide selected by phage display against c-MycC52; N-terminal acetylation, C-terminal amidation] |  | SLC > PTN > VSE > EIE > RVS | 5
